According to US6342508B1, “N-hydroxy-2-(Alkyl,Aryl or Heteroaryl sulfanyl, sulfinyl or sulfonyl) 3-substituted alkyl, aryl or heteroarylamides as matrix metalloproteinase inhibitors” (American Cyanamid Company, priority 1997, dated 2002):

Experiments:
MMP 13 = MMP 13 (Homo sapiens, UniProt P45452); assay: MMP 13 inhibition (HTS); assay type: biochemical
TACE = target: T1, TACE (Homo sapiens, UniProt P78536); assay: Procedure for Measuring TACE Inhibition (fluorescent peptidyl substrate); assay type: biochemical; conditions: for IC50: read-out: TACE IC 50
T1 construct: purchased Immunex
T1 sequence (P78536 215-824): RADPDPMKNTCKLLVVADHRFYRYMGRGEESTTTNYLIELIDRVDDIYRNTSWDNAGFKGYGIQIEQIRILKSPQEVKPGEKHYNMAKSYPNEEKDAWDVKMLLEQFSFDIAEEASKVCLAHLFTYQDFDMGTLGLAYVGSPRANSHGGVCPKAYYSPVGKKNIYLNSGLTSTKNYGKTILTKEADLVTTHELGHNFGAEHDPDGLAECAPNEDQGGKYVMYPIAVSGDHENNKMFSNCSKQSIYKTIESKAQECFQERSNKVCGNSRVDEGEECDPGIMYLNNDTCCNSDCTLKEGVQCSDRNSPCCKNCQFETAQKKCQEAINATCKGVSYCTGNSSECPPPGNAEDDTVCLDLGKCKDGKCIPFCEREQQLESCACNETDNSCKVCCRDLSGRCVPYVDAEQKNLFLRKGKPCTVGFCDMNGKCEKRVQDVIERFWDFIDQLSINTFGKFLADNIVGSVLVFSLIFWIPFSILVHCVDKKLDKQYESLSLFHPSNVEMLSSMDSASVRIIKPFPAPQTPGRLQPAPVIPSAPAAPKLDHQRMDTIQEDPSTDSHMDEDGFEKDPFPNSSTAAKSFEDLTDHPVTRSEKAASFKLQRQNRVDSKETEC
Protocol: Using 96-well black microtiter plates, each well recieves a solution composed of 10 μL TACE (Immunex, final concentration 1 μg/mL), 70 μL Tris buffer, pH 7.4 containing 10% glycerol (final concentration 10 mM), and 10 μL of test compound solution in DMSO (final concentration, DMSO concentration <1%) and incubated for 10 minutes at room temperature. The reaction is initiated by addition of a fluorescent peptidyl substrate (final concentration 100 μM) to each well and then shaking on a shaker for 5 sec. The reaction is read (excitation 340 nm, emission 420 nm) for 10 min. and the increase in fluorescence over time is plotted as a linear line. The slope of the line is calculated and represents the reaction rate. […] The mean (x±sem) of the control rate is calculated and compared for statistical significance (p<0.05) with drug-treated rates using Dunnett's multiple comparison test.

Compound	MMP 13 % inhibition at 36 nM (HTS) (MMP 13)	MMP 13 % inhibition at 0.2 μM (HTS) (MMP 13)	further results
3-(1-Hydroxycarbamoyl-heptylsulfanyl)-benzoic acid hydroxyamide [Example 184]	16%		TACE % inhibition at 1 mM (TACE): 24.8%
3-Bromo-2-chloro-thiophene-2-sulfonic acid 4-(1-hydroxycarbamoyl-heptylsulfonyl)-hydroxyamide [Example 239]	54%		TACE % inhibition at 1 mM (TACE): 45.9%
COc1ccc(S(=O)(=O)C2(C(=O)NO)CCN(C(C)(C)C)CC2)cc1 [Example 92, 1-Tert-butyl-4-(4-methoxy-benzenesulfonyl)-piperidine-4-carboxylic acid hydroxyamide]			melting point: 40 °C; IC50 (TACE): 9.7 nM
COc1ccc(S(=O)(=O)C2(C(=O)NO)CCN(C3CCCCCCC3)CC2)cc1 [Example 94, 1-Cyclooctyl-4-(4-methoxy-benzenesulfonyl)-piperidine-4-carboxylic acid hydroxyamide]			melting point: > 200 °C; IC50 (TACE): 22.9 nM
COc1ccc(S(=O)(=O)C2(C(=O)NO)CCN(C(C)C)CC2)cc1 [Example 96, 1-Isopropyl-4-(4-methoxy-benzenesulfonyl)-piperidine-4-carboxylic acid hydroxyamide]			melting point: 75 °C; IC50 (TACE): 18.1 nM
COc1ccc(SC(C)C(=O)NO)cc1 (stereo not drawn) [Example 111, N-Hydroxy-2-(4-methoxy-benzenesulfanyl)-propionamide]		10%	TACE % inhibition at 1 mM (TACE): 40.4%
CC(C)CCSC(C)C(=O)NO (stereo not drawn) [Example 112, N-Hydroxy-2-(3-methyl-butane-1-sulfanyl)-propionamide]		50%	TACE % inhibition at 1 mM (TACE): 33.7%
CCC(SCC(=O)OC)C(=O)NO (stereo not drawn) [Example 119, (1-Hydroxycarbamoyl-propane-1-sulfanyl)-acetic acid methyl ester]		0%	TACE % inhibition at 1 mM (TACE): 7.8%
COC(=O)CCC(Sc1ccc(SC)cc1)C(=O)NO (stereo not drawn) [Example 131, 4-Hydroxycarbamoyl-4-(4-methanesulfanyl-phenylsulfanyl)-butyric acid methyl ester]		71%	
O=C(CCC(Sc1ccc(Br)cc1)C(=O)NO)NO (stereo not drawn) [Example 134, 4-Hydroxycarbamoyl-4-(4-bromo-benzenesulfanyl)-butyric acid hydroxyamide]		25%	TACE % inhibition at 1 mM (TACE): −9.31%
O=C(CCC(Sc1ccccc1C(F)(F)F)C(=O)NO)NO (stereo not drawn) [Example 137, 4-Hydroxycarbamoyl-4-(2-trifluoromethyl-benzenesulfanyl)-butyric acid hydroxyamide]		83%	TACE % inhibition at 1 mM (TACE): 13.35%
CCCCCCCCC(Sc1cccc(OC)c1)C(=O)NO (stereo not drawn) [Example 140, 2-(3-methoxy-benzenesulfanyl)decanoic acid hydroxamide]		29%	
CCCCCCCCC(C(=O)NO)[S+]([O-])c1cccc(OC)c1 (stereo not drawn) [Example 141, 2-(3-Methoxy-benzenesulfinyl)decanoic acid hydroxamide]		32%	
CCCCCCCCC(C(=O)NO)S(=O)(=O)c1cccc(OC)c1 (stereo not drawn) [Example 142, 2-(3-Methoxy-benzenesulfonyl)decanoic acid hydroxamide]		69%	
CCCCCCCCC(C(=O)NO)[S+]([O-])c1ccc([S+](C)[O-])cc1 (stereo not drawn) [Example 144, 2-(4-methanesulfinyl-benzenesulfinyl)decanoic acid hydroxamide]		38%	
CCCCCCCCC(C(=O)NO)S(=O)(=O)c1ccc(S(C)(=O)=O)cc1 (stereo not drawn) [Example 145, 2-(4-methanesulfonyl-benzenesulfonyl)decanoic acid hydroxamide]		45%	
CSc1ccc(SC(COCc2ccccc2)C(=O)NO)cc1 (stereo not drawn) [Example 146, 3-benzyloxy-N-hydroxy-2-(4-methanesulfanyl-benzenesulfanyl)-propionamide]		68%	

Compound	MMP 13 % inhibition at 36 nM (HTS) (MMP 13)	MMP 13 % inhibition at 0.2 μM (HTS) (MMP 13)	further results
O=C(NO)C(Cc1cnc[nH]1)Sc1ccccc1Br (stereo not drawn) [Example 152, 2-(2-bromo-benzenesulfanyl)-N-hydroxy-3-(3H-imidazol-4-yl)-propionamide]		9%	
N=C(N)NCCCC(Sc1ccccc1Br)C(=O)NO (stereo not drawn) [Example 157, 2-(2-Bromosulfanyl)-5-guanidino-pentanoic acid hydroxyamide]		19%	
N=C(N)NCCCC(C(=O)NO)[S+]([O-])c1ccccc1Br (stereo not drawn) [Example 158, 2-(2-Bromosulfinyl)-5-guanidino-pentanoic acid hydroxyamide]		33%	
N=C(N)NCCCC(C(=O)NO)S(=O)(=O)c1ccccc1Br (stereo not drawn) [Example 159, 2-(2-Bromosulfonyl)-5-guanidino-pentanoic acid hydroxyamide]		49%	
CCCCCCC(Sc1cc(Cl)ccc1Cl)C(=O)NO (stereo not drawn) [Example 160, 2-(2,5-dichlorobenzenesulfanyl)-octanoic Acid Hydroxyamide]		14%	
CCCCCCC(Sc1cccc(OC)c1)C(=O)NO (stereo not drawn) [Example 162, 2-(3-Methoxybenzenesulfanyl)-octanoic acid hydroxyamide]		13%	
CCCCCCC(Sc1ccc(OC)c(OC)c1)C(=O)NO (stereo not drawn) [Example 165, 2-(3,4-Dimethoxybenzenesulfanyl)-octanoic acid hydroxyamide]		71%	
CCCCCCC(Sc1nc2ccccc2[nH]1)C(=O)NO (stereo not drawn) [Example 168, 2-(2-Benzimidazol-2-ylsulfanyl)-octanoic acid hydroxyamide]		21%	
CCCCCCC(Sc1nc2ccccc2o1)C(=O)NO (stereo not drawn) [Example 169, 2-(2-Benzooxazol-2-ylsulfanyl)-octanoic acid hydroxyamide]	28%		
CCCCCCC(Sc1nc2ccccc2s1)C(=O)NO (stereo not drawn) [Example 170, 2-(2-Benzothiazol-2-ylsulfanyl)-octanoic acid hydroxyamide]	32%		
CCCCCCC(Sc1nc(-c2ccccc2)cs1)C(=O)NO (stereo not drawn) [Example 172, 2-(4-Phenyl-thiazole-2-sulfanyl)-octanoic acid hydroxyamide]	34%		TACE % inhibition at 1 mM (TACE): 29.4%
CCCCCCC(C(=O)NO)[S+]([O-])c1nc2ccccc2[nH]1 (stereo not drawn) [Example 177, 2-(2-Benzimidazol-2-ylsulfinyl)-octanoic acid hydroxyamide]	5%		
CCCCCCC(C(=O)NO)S(=O)(=O)c1[nH]c2ccccc2[n+]1[O-] (stereo not drawn) [Example 181, 2-(3-Oxy-1H-benzimidazole-2-sulfonyl)-octanoic acid hydroxyamide]	6%		
CCCCCCC(C(=O)NO)S(=O)(=O)CCc1cccc[n+]1[O-] (stereo not drawn) [Example 183, 2-[2-(1-Oxy-pyridin-2-yl)-ethanesulfonyl]-octanoic acid hydroxyamide]	−6%		
CCCCCCC(Sc1ccc(OCc2ccccc2)cc1)C(=O)NO (stereo not drawn) [Example 199, 2-(^4-Benzyloxy-phenylsulfanyl)-octanoic acid hydroxyamide]	−10%		
CCCCCCC(Sc1ccc(NS(=O)(=O)c2cc(Cl)sc2Cl)cc1)C(=O)NO (stereo not drawn) [Example 233]	33%		TACE % inhibition at 1 mM (TACE): 19.8%
